The source of these data is patent US6130204A (Merck & Co., Inc., priority 1998, dated 2000).

One series deals with LNCaP prostate tumor cells. As to the kind of experiment: In vitro cytotoxicity of peptidyl derivatives of doxorubicin (Alamar Blue assay). In kind it is cell-based, human. Conditions: FIG. 4, cells incubated 3 days at 37° C. The procedure: The cytotoxicities of the non-cleaveable oligopeptide-doxorubicin conjugates, prepared as described in Example 4, against a line of cells which is known to be killed by unmodified doxorubicin were assessed with an Alamar Blue assay. Specifically, cell cultures of LNCaP prostate tumor cells, which are a human metastatic prostate adenocarcinoma isolated from a needle biopsy of a lymph node (LNCaP.FGC: American Type Culture Collection, ATCC CRL 1740), or DuPRO cells in 96 well plates were diluted with medium containing various concentrations of a given conjugate (final plate well volume of 200 μl). The cells were incubated for 3 days at 37° C. and then 20 μl of Alamar Blue was added to the assay well. The cells were further incubated and the assay plates were read on a EL-310 ELISA reader at the dual wavelengths of 570 and 600 nm at 4 and 7 hours after addition of Alamar Blue. Relative percentage viability at the various concentration of conjugate tested was then calculated versus control (no conjugate) cultures. Cytotoxicities of unmodified doxorubicin and unmodified oligopeptide were also assessed.
For orientation: Resazurin is reduced to fluorescent resorufin, in cell work by metabolically active cells.
On to `COc1cccc2c1C(=O)c1c(O)c3c(c(O)c1C2=O)C[C@@](O)(C(=O)CO)C[C@@H]3O[C@H]1C[C@H](N)[C@H](O)[C@H](C)O1` [doxorubicin], for which the EC50 (usually the concentration that produces a half-maximal response) was found to be 0.3 µM.

The test system of another series is free PSA.
Assay: not given
Settings: not given
Take “Ac-AlaAsnLysAlaSerTyrGln.vertline.SerAlaSerThrGlu-amide”: the cleaved bond result is reported as “Gln-Ser”.
Same read-out and setting: the same measure for “Ac-AlaAsnLysIleSerTyrGln.vertline.SerSerGlnThrGlu-amide”: “Gln-Ser”.
“Ac-AlaAsnLysIleSerTyrGln.vertline.SerSerSerThrGlu-amide”: the cleaved bond result is listed as “Gln-Ser”.
Consider “Ac-AlaAsnLysIleSerTyrTyr.vertline.SerSerSerThrGlu-amide”, for which the cleaved bond result is on record as “Tyr-Ser”.
Consider “Ac-SerTyrGln.vertline.SerSerSerThrGlu-amide”, for which the cleaved bond entry was “Gln-Ser”.
Regarding “Ac-AlaAsnLysAlaSerTyrGln.vertline.SerAlaSerCys-amide”, the cleaved bond entry is recorded as “Gln-Ser”.
“Ac-AlaSerTyrGln.vertline.SerSerLeu-amide”: the cleaved bond entry is recorded as “Gln-Ser”.
Ac-hArgTyrGln.vertline.SerSerSer(MeLeu): the cleaved bond result was “Gln-Ser”.
For the molecule “Ac-AlaAsnSerTyrGln.vertline.SerSerSerThrGlu-amide”, the cleaved bond result is given as “Gln-Ser”.
On to “Ac-AlaAsnLysIleSerTyrGln.vertline.SerSerSerThrLeu”, for which the cleaved bond entry is reported as “Gln-Ser”.
Take “Ac-AlaAsnLysIleSerTyrGln.vertline.SerAlaSerThrGlu-amide”: the cleaved bond entry was “Gln-Ser”.
“Ac-AlaAspLysAlaLysTyrGln.vertline.SerSer(Cha)-NHNH2”: the cleaved bond entry is listed as “Gln-Ser”.
For the molecule “Ac-AlaSerTyrGln.vertline.SerSerThrGlu-amide”, the cleaved bond entry is recorded as “Gln-Ser”.
As to “Ac-AlaAsnLysIleSerTyrGln.vertline.SerSerLysThrGlu-amide”, the cleaved bond result is “Gln-Ser”.
Take “Ac-AlaAsnLysIleSerTyrTyr.vertline.SerAlaSerThrGlu-amide”: the cleaved bond entry is “Tyr-Ser”.
As for “Ac-AlaAsnLysIleSerTyrGln.vertline.SerThrGlu-amide”, the cleaved bond entry is “Gln-Ser”.
As to “Ac-AlaAsnLysIleSerTyrGln.vertline.SerSerThrGlu-amide”, the cleaved bond entry was “Gln-Ser”.
In the case of “Ac-AlaAsnLysIleSerTyrGln.vertline.SerAlaLysThrGlu-amide”, the cleaved bond result is recorded as “Gln-Ser”.
Regarding “Ac-AsnLysIleSerTyrGln.vertline.SerSer-amide”, the cleaved bond result is “Gln-Ser”.
“Ac-AlaAsnLysSerTyrGln.vertline.SerSerThrGlu-amide”: the cleaved bond result is listed as “Gln-Ser”.
In the case of “Ac-AlaAsnGluIleSerTyrGln.vertline.SerAlaSerThrGlu-amide”, the cleaved bond entry is listed as “Gln-Ser”.
Take “Ac-AlaAsnLysIleSerTyrGln.vertline.SerSerSerThrLeu-amide”: the cleaved bond result was “Gln-Ser”.
For the molecule “Ac-AlaSerTyrGln.vertline.SerSerSerThrGlu-amide”, the cleaved bond result is “Gln-Ser”.
For the molecule “Ac-SerTyrGln.vertline.SerSerThrGlu-amide”, the cleaved bond result is recorded as “Gln-Ser”.
With “Ac-hArgTyrGln.vertline.SerSerSer(Ethylester-Leu)”, the cleaved bond result is listed as “Gln-Ser”.
Still for that read-out and setting: the same measure for “AlaAsnLysIleSerTyrGln.vertline.SerSerSerThrGlu-amide”: “Gln-Ser”.
Consider “Ac-LysIleSerTyrGln.vertline.SerSer-amide”, for which the cleaved bond entry is given as “Gln-Ser”.
As for “Ac-hArg(Cha)Gln.vertline.SerSerSer(ethylester-Leu)”, the cleaved bond entry is listed as “Gln-Ser”.
